75 molecules from ChEMBL document CHEMBL2364335, “Structure-activity relationship data for chemical series of achiral agonists of the ghrelin (growth hormone secretagogue) receptor (Supplementary Bioactivity Data for publication CHEMBL1140573)” can be followed below.

The target in the assay is Growth hormone secretagogue receptor type 1 (Homo sapiens, UniProt Q92847). Briefly: SUPPLEMENTARY: Agonist activity at GSHR by FLIPR assay. Same assay as CHEMBL941945. In kind it is functional.
Chain of Growth hormone secretagogue receptor type 1 (Q92847 whole entry): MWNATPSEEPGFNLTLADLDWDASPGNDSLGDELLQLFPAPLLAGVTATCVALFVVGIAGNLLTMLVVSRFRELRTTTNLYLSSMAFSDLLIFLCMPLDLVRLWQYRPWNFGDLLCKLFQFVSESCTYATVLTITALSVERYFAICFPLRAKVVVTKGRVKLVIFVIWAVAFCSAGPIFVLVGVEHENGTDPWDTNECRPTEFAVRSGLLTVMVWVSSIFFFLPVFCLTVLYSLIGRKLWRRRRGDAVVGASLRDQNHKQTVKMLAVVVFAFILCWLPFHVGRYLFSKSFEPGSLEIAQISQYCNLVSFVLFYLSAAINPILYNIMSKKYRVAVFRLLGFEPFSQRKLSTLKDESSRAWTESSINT
What is called EC50 is the concentration that produces a half-maximal response. A lower EC50 goes with greater potency. Consider `COc1ccc(N2C[C@@H](C)N[C@@H](C)C2)cc1NS(=O)(=O)c1ccc(-c2ccco2)nc1`, for which the EC50 was 15.8 nM.
Then `COc1ccc(NS(=O)(=O)c2ccc(-c3cccc(C)c3)s2)cc1N1C[C@@H](C)N[C@@H](C)C1`, with 3.98 nM; and `COc1ccc(NS(=O)(=O)c2ccc(-c3ccc(F)cc3)s2)cc1N1C[C@@H](C)N[C@@H](C)C1`, with 100 nM; and `COc1ccc(N2C[C@@H](C)N[C@@H](C)C2)cc1NS(=O)(=O)c1ccc(-c2ccccc2Cl)s1`, with 2.51 nM.
For the molecule `COc1ccc(N2C[C@@H](C)N[C@@H](C)C2)cc1NS(=O)(=O)c1ccc(-c2cccc(F)c2)s1`, the EC50 was 31.6 nM.
Then `COc1ccc(N2C[C@@H](C)N[C@@H](C)C2)cc1NS(=O)(=O)c1ccc(-c2ccc(C)cc2)s1`, with 31.6 nM; and `Cc1ccc(N2C[C@@H](C)N[C@@H](C)C2)cc1NS(=O)(=O)c1ccc(Br)cc1`, with 100 nM.
Next, `COc1ccc(NS(=O)(=O)c2ccc(-c3ccoc3)s2)cc1N1C[C@@H](C)N[C@@H](C)C1`: 12.6 nM; `Cc1ccc(N2C[C@@H](C)N[C@@H](C)C2)cc1NS(=O)(=O)c1ccc2ccccc2c1`: 5.01 nM; `COc1ccc(N2C[C@@H](C)N[C@@H](C)C2)cc1NS(=O)(=O)c1ccc(-c2ccc(C)s2)s1`: 25.1 nM.
As for `Cc1ccc(N2C[C@@H](C)N[C@@H](C)C2)cc1NS(=O)(=O)c1cccc2ccccc12`, a half-maximal response (EC50) required 20 nM.
Next, `Cc1ccc(N2C[C@@H](C)N[C@@H](C)C2)cc1NS(=O)(=O)c1ccc(-c2cccs2)cc1`: 3.98 nM; `Cc1csc(-c2ccc(S(=O)(=O)Nc3cc(N4C[C@@H](C)N[C@@H](C)C4)ccc3C)cc2)c1`: 1.26 nM.
Next, `COc1ccc(NS(=O)(=O)c2ccc(-c3cccs3)c(F)c2)cc1N1C[C@@H](C)N[C@@H](C)C1`: 3.16 nM.
Then `COc1ccc(NS(=O)(=O)c2ccc(-c3ccc(C)s3)s2)cc1N1C[C@@H](C)N[C@@H](C)C1`, with 1.58 nM; and `COc1ccc(N2C[C@@H](C)N[C@@H](C)C2)cc1NS(=O)(=O)c1ccc(-c2cc(C)cs2)cc1C`, with 0.398 nM; and `COc1ccc(N2C[C@@H](C)N[C@@H](C)C2)cc1NS(=O)(=O)c1ccc(-c2cccc(Cl)c2)cc1`, with 2.51 nM.
`COc1ccc(N2C[C@@H](C)N[C@@H](C)C2)cc1NS(=O)(=O)c1ccc(-c2cc(C)cs2)cc1F`: it took 0.501 nM to reach a half-maximal effect (EC50).
Then `COc1ccc(N2C[C@@H](C)N[C@@H](C)C2)cc1NS(=O)(=O)c1ccc(-c2ccco2)cc1F`, with 1.58 nM.
`COc1ccc(N2C[C@@H](C)N[C@@H](C)C2)cc1NS(=O)(=O)c1cccc2cccc(Cl)c12` showed a half-maximal effective concentration (EC50) of 10 nM.
Next, `COc1ccc(NS(=O)(=O)c2ccc(-c3cc(C)cs3)cc2)cc1N1C[C@@H](C)N[C@@H](C)C1`: 1.26 nM; `COc1ccc(NS(=O)(=O)c2ccc(-c3ccoc3)cc2)cc1N1C[C@@H](C)N[C@@H](C)C1`: 12.6 nM; `COc1ccc(N2C[C@@H](C)N[C@@H](C)C2)cc1NS(=O)(=O)c1ccc(-c2ccc(F)cc2F)cc1`: 100 nM.
`COc1ccc(N2C[C@@H](C)N[C@@H](C)C2)cc1NS(=O)(=O)c1ccc(-c2ccccc2F)cc1` gave an EC50 of 20 nM.
Molecule `COc1ccc(N2C[C@@H](C)N[C@@H](C)C2)cc1NS(=O)(=O)c1ccc(-c2cccc(F)c2F)cc1` had a 50% effective concentration (EC50) of 31.6 nM.
The molecule `COc1ccc(N2C[C@@H](C)N[C@@H](C)C2)cc1NS(=O)(=O)c1ccc(-c2cccc(C)n2)cc1F` showed a 50% effective concentration (EC50) of 7.94 nM.
`COc1ccc(N2C[C@@H](C)N[C@@H](C)C2)cc1NS(=O)(=O)c1ccc(-c2cccc(C)n2)c(F)c1` showed a half-maximal effective concentration (EC50) of 79.4 nM.
Next, `C[C@@H]1CN(c2ccc(F)c(NS(=O)(=O)c3ccc(-c4ccccc4)cc3)c2)C[C@H](C)N1`: 31.6 nM.
Next, `C[C@@H]1CN(c2ccc(F)c(NS(=O)(=O)c3ccc(-c4cccs4)cc3F)c2)C[C@H](C)N1`: 20 nM; `COc1ccc(N2C[C@@H](C)N[C@@H](C)C2)cc1NS(=O)(=O)c1ccc(-c2ccco2)cc1C`: 2 nM.
Then `C[C@@H]1CN(c2ccc(F)c(NS(=O)(=O)c3ccc(-c4cccs4)cc3Cl)c2)C[C@H](C)N1`, with 7.94 nM.
Turning to `Cc1cc(-c2cccs2)ccc1S(=O)(=O)Nc1cc(N2C[C@@H](C)N[C@@H](C)C2)ccc1F`, the half-maximal effective concentration (EC50) was 20 nM.
Next, `C[C@@H]1CN(c2ccc(F)c(NS(=O)(=O)c3ccc(-c4cccs4)c(F)c3)c2)C[C@H](C)N1`: 10 nM; `C[C@@H]1CN(c2ccc(F)c(NS(=O)(=O)c3ccc(-c4ccoc4)cc3)c2)C[C@H](C)N1`: 25.1 nM.
Next, `Cc1cc(-c2ccoc2)ccc1S(=O)(=O)Nc1cc(N2C[C@@H](C)N[C@@H](C)C2)ccc1F`: 31.6 nM; `C[C@@H]1CN(c2ccc(F)c(NS(=O)(=O)c3ccc(-c4ccoc4)c(F)c3)c2)C[C@H](C)N1`: 15.8 nM; `C[C@@H]1CN(c2ccc(F)c(NS(=O)(=O)c3ccc(-c4ccoc4)cc3Cl)c2)C[C@H](C)N1`: 20 nM.
Next, `COc1ccc(N2C[C@@H](C)N[C@@H](C)C2)cc1NS(=O)(=O)c1ccc(-c2cccc(C)n2)cc1C`: 6.31 nM.
`COc1ccc(N2C[C@@H](C)N[C@@H](C)C2)cc1NS(=O)(=O)c1cc(C)c(-c2ccccc2F)s1` had an EC50 of 63.1 nM.
Next, `COc1ccc(N2C[C@@H](C)N[C@@H](C)C2)cc1NS(=O)(=O)c1cc(C)c(-c2cccc(C)n2)s1`: 12.6 nM; `COc1ccc(N2C[C@@H](C)N[C@@H](C)C2)cc1NS(=O)(=O)c1ccc(-c2csnn2)s1`: 25.1 nM.
Then `COc1ccc(N2C[C@@H](C)N[C@@H](C)C2)cc1NS(=O)(=O)c1ccc2c(c1)CCC(C)(C)O2`, with 31.6 nM; and `COc1ccc(N2C[C@@H](C)N[C@@H](C)C2)cc1NS(=O)(=O)c1ccc(-c2ccsc2)c(C)c1`, with 7.94 nM.
Molecule `COc1ccc(N2C[C@@H](C)N[C@@H](C)C2)cc1NS(=O)(=O)c1ccc2c(c1)OCCN2C` showed an EC50 of 79.4 nM.
Next, `COc1ccc(N2C[C@@H](C)N[C@@H](C)C2)cc1NS(=O)(=O)c1ccc(-c2ccsc2)cc1C`: 5.01 nM.
Molecule `COc1ccc(N2C[C@@H](C)N[C@@H](C)C2)cc1NS(=O)(=O)c1ccc(-c2csc(C)n2)s1` gave an EC50 of 39.8 nM.
Next, `COc1ccc(N2C[C@@H](C)N[C@@H](C)C2)cc1NS(=O)(=O)c1ccc(-c2nccs2)cc1`: 12.6 nM; `COc1ccc(N2C[C@@H](C)N[C@@H](C)C2)cc1NS(=O)(=O)c1ccc(-c2ccc(C)s2)cc1F`: 3.98 nM; `COc1ccc(N2C[C@@H](C)N[C@@H](C)C2)cc1NS(=O)(=O)c1ccc(-c2ccsc2)cc1Cl`: 3.16 nM.
Next, `COc1ccc(N2C[C@@H](C)N[C@@H](C)C2)cc1NS(=O)(=O)c1cccc(-c2ccoc2)c1`: 39.8 nM; `COc1ccc(N2C[C@@H](C)N[C@@H](C)C2)cc1NS(=O)(=O)c1cccc(-c2cc(C)cs2)c1`: 50.1 nM; `COc1cc(Br)ccc1S(=O)(=O)Nc1cc(N2C[C@@H](C)N[C@@H](C)C2)ccc1F`: 100 nM.
Next, `Cc1cc(S(=O)(=O)Nc2cc(N3C[C@@H](C)N[C@@H](C)C3)ccc2F)ccc1Br`: 63.1 nM; `COc1ccc(N2C[C@@H](C)N[C@@H](C)C2)cc1NS(=O)(=O)c1ccc(-c2cccn2C)cc1`: 20 nM; `COc1ccc(N2C[C@@H](C)N[C@@H](C)C2)cc1NS(=O)(=O)c1ccc(-c2ccc(C)s2)c(C)c1`: 6.31 nM.
With `COc1ccc(N2C[C@@H](C)N[C@@H](C)C2)cc1NS(=O)(=O)c1ccc(-c2cnccn2)cc1`, the response was half-maximal at 31.6 nM (EC50).
Next, `COc1ccc(N2C[C@@H](C)N[C@@H](C)C2)cc1NS(=O)(=O)c1ccc(-c2ccc(C)o2)cc1Cl`: 0.316 nM; `COc1cc(-c2cc(C)cs2)ccc1S(=O)(=O)Nc1cccc(N2C[C@@H](C)N[C@@H](C)C2)c1`: 6.31 nM; `COc1cc(-c2ccco2)ccc1S(=O)(=O)Nc1cccc(N2C[C@@H](C)N[C@@H](C)C2)c1`: 20 nM.
Then `COc1cc(-c2cccs2)ccc1S(=O)(=O)Nc1cccc(N2C[C@@H](C)N[C@@H](C)C2)c1`, with 20 nM; and `COc1ccc(N2C[C@@H](C)N[C@@H](C)C2)cc1NS(=O)(=O)c1ccc(-c2ccco2)cc1Cl`, with 0.501 nM; and `COc1ccc(N2C[C@@H](C)N[C@@H](C)C2)cc1NS(=O)(=O)c1ccc(-c2ccc(C)s2)c(F)c1`, with 3.98 nM.
Next, `COc1ccc(N2C[C@@H](C)N[C@@H](C)C2)cc1NS(=O)(=O)c1ccc(-c2cccs2)nc1`: 50.1 nM; `C[C@@H]1CN(c2ccc(Cl)c(NS(=O)(=O)c3ccc(-c4ccco4)cc3)c2)C[C@H](C)N1`: 1.58 nM; `COc1ccc(N2C[C@@H](C)N[C@@H](C)C2)cc1NS(=O)(=O)c1cc(F)c(-c2ccco2)cc1F`: 15.8 nM.
In turn, `C[C@@H]1CN(c2ccc(Cl)c(NS(=O)(=O)c3ccc(-c4ccccc4F)s3)c2)C[C@H](C)N1` had a 50% effective concentration (EC50) of 10 nM.
Consider `COc1ccc(N2C[C@@H](C)N[C@@H](C)C2)cc1NS(=O)(=O)c1ccc(-c2ccc(C)o2)nc1`, for which the 50% effective concentration (EC50) is 7.94 nM.
Then `COc1ccc(N2C[C@@H](C)N[C@@H](C)C2)cc1NS(=O)(=O)c1ccc(-c2cc(C)cs2)nc1`, with 10 nM; and `COc1ccc(N2C[C@@H](C)N[C@@H](C)C2)cc1NS(=O)(=O)c1ccc(-c2csc(C)c2)c(F)c1`, with 2 nM.
Then `COc1ccc(N2C[C@@H](C)N[C@@H](C)C2)cc1NS(=O)(=O)c1ccc(-c2csc(C)c2)cc1F`, with 2.51 nM; and `COc1ccc(N2C[C@@H](C)N[C@@H](C)C2)cc1NS(=O)(=O)c1ccc(-c2csc(C)c2)cc1`, with 3.98 nM; and `COc1ccc(N2C[C@@H](C)N[C@@H](C)C2)cc1NS(=O)(=O)c1ccc(-c2ncccn2)cc1`, with 12.6 nM.
Next, `COc1ccc(N2C[C@@H](C)N[C@@H](C)C2)cc1NS(=O)(=O)c1ccc(Cl)c2ccccc12`: 50.1 nM; `COc1ccc(N2C[C@@H](C)N[C@@H](C)C2)cc1NS(=O)(=O)c1ccc(-c2ccc(C)o2)cn1`: 3.16 nM; `COc1ccc(N2C[C@@H](C)N(C)[C@@H](C)C2)cc1NS(=O)(=O)c1ccc(-c2cccs2)cc1`: 12.6 nM.
